From PMC6164331, “Synthesis, Evaluation for Cytotoxicity and Molecular Docking Studies of Benzo[c]furan-Chalcones for Potential to Inhibit Tubulin Polymerization and/or EGFR-Tyrosine Kinase Phosphorylation” (International Journal of Molecular Sciences, 2018)
Read-outs that look alike come from different tables or passages of the source. Starred links: 1 amine or outer side, 2 acyl side, 3 side chain; linkers in the order of their positions; H or OH if unused. Positions of bridges follow the written chain, without caps; N, C: chain ends. Non-standard residues stand in square brackets, D forms with d. Residues, ends and D or L forms follow the SMILES beside them. Chains are numbered I, II in the order given. Actinocin(9to1) = Cc1c2oc3c(C)ccc(C(=O)[*:1])c3nc-2c(C(=O)[*:2])c(N)c1=O; NMeV = CN[C@H](C(=O)O)C(C)C; Sar = CNCC(=O)O

Columns and labels:
tubulin = tubulin (Sus scrofa, UniProt P02550+P02554); experiment: Cell-free tubulin polymerization assay; format: biochemical; details: for IC50: colchicine as positive control, read-out: IC50 against tubulin polymerization; for inhibitory effect against tubulin polymerization (in words): compared to colchicine or to the other derivatives of the series
Sequence of tubulin (P02550 whole entry): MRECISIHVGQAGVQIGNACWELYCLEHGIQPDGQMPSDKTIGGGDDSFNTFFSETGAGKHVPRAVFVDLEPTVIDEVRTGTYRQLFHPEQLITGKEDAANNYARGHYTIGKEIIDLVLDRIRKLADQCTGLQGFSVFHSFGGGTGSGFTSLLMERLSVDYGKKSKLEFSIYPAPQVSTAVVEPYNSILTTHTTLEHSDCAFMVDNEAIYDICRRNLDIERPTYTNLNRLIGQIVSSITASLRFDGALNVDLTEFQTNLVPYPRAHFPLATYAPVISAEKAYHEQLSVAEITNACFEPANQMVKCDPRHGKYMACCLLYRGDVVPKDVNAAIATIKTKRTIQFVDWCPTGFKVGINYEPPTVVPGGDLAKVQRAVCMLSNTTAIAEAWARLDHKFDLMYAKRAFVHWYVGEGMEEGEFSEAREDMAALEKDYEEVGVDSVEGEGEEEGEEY
Sequence of tubulin (P02554 whole entry): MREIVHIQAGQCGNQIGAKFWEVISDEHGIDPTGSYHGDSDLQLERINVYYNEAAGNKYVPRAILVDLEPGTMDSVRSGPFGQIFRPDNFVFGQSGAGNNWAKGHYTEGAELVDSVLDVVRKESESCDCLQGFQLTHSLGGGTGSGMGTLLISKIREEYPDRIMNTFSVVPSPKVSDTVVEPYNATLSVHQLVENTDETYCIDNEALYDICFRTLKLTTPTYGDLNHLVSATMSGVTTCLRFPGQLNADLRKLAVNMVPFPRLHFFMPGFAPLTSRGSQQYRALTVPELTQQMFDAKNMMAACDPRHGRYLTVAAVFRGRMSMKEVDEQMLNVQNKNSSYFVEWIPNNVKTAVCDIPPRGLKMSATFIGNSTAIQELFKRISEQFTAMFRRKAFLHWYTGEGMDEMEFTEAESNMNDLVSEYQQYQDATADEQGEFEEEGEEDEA
Experimental: Tubulin polymerization assays were carried out using the tubulin polymerization assay kit (Cytoskeleton, Inc., Denver, CO, USA) following the instruction by the manufacturer.

MCF-7 cell line = experiment: MTT cytotoxicity assay against the MCF-7 cell line; details: for IC50: read-out: MCF-7 Cell Line IC50 (μM) ± SD; for cytotoxicity against MCF-7 cells (in words): compared to actinomycin D
Experimental: The human breast cancer (MCF-7) cell line was maintained in culture flasks containing Dulbecco’s Modified Eagles Medium (DMEM). The media was supplemented with 1% antibiotics (100 µg/mL penicillin, 100 µg/mL streptomycin and 250 µg/L fungizone) and 10% heat-inactivated fetal bovine serum. […] The cells were sub-cultured every two-to-three days after the cells had formed a confluent monolayer.
The compounds were assessed at 0–100 µM. The control wells included vehicle treated cells exposed to 2% DMSO and the positive control, actinomycin D, with concentrations ranging between 5, 10, 25, and 50, and 100 µM. The microtitre plates were incubated for 48 h. After the 48 h incubation period the MTT reagent (10 µL) was added to a final concentration of 0.5 mg/mL and the plate was further incubated for another 4 h. After 4 h, 100 µL of the solubilisation solution was added to each well and the plate was allowed to stand overnight. Subsequently, the absorbance of the color complex was read at 550 nm with a reference wavelength set at 650 nm using a BIO-TEK Power-Wave XS multi-well plate reader (BioTech Instruments, Midrand, South Africa). The IC50 values of the compounds were calculated using OriginPro software (OriginLab Corporation, Northampton, MA, USA).

MCF-7 cells = experiment: Annexin V-Cy3 SYTOX staining apoptosis assay (flow cytometry); format: cell-based, human; details: for viability at 1 µM: Homo sapiens, read-out: %Viable Cells (Q3)
Source text: Several distinctive modes of cell death such as apoptosis, necrosis, autophagy, and cornification exist and are characterized by differences in their morphology and their biochemical changes. […] We employed the Annexin V-Cy3 SYTOX apoptosis assay kit to distinguish between viable cells (Annexin V-negative; PI-negative), early apoptotic cells (Annexin V-positive; PI-negative), late apoptotic cells (Annexin V-positive; PI-positive) and unviable or necrotic cells (Annexin V-negative; PI-positive). The cells were analyzed by the flow cytometry, which is an important tool to evaluate the molecular and morphological events that take place during cell death and cell proliferation.
The percentage population of apoptotic cells were determined using Annexin V–Cy3 SYTOX apoptosis detection kit (Abcam, Milton, Cambridge, UK) according to the manufacturer’s instructions. […] The cells were incubated for 48 h and then stained with Annexin V–Cy3 SYTOX green dye. The cells were analyzed using BD Biosciences FACSAria III flow cytometer (BD Biosciences, San Jose, CA, USA).

Caspase-3 (Asp175) = experiment: Caspase-3 activation colorimetric assay in MCF-7 cells; format: cell-based, human; details: 1 µM, 24 h, compared to 3i and actinomycin D
Experimental: Activation of caspases (caspase-2, 3, 6, 7, 8, 9, and 10) is a major biochemical feature that plays a central role in the morphological changes associated with apoptosis. Consequently, we evaluated compounds 3b and 3i for their potential to induce caspase-3 activation in the MCF-7 cells.
Caspase-3 activity was detected by means of Caspase-3 Colorimetric Assay Kit (Abcam, Cambridge, MA, USA). The cells were cultured in 24 well plates and treated for 24 h with 3b or 3i at a concentration of 1 µM against actinomycin D (1 µM) as a reference standard, respectively. The cells were then washed with PBS buffer and lysed on ice. The experiments were carried out according to the manufacturer’s instructions. Optical density was measured at absorbance of 450 nm using the BioTek microplate reader. The concentration of active Caspase-3 (Asp 175) were measured in duplicates and interpolated from the active caspase-3 (Asp 175) standard curve and corrected for sample dilution.

EGFR-TK = biological target: T1, EGFR-TK (Homo sapiens, UniProt P00533); experiment: EGFR-TK phosphorylation inhibition assay (ELISA); format: biochemical; details: purified EGFR
T1 construct: purchased Sigma-Aldrich, Bradford, UK
T1 sequence (P00533 25-1210): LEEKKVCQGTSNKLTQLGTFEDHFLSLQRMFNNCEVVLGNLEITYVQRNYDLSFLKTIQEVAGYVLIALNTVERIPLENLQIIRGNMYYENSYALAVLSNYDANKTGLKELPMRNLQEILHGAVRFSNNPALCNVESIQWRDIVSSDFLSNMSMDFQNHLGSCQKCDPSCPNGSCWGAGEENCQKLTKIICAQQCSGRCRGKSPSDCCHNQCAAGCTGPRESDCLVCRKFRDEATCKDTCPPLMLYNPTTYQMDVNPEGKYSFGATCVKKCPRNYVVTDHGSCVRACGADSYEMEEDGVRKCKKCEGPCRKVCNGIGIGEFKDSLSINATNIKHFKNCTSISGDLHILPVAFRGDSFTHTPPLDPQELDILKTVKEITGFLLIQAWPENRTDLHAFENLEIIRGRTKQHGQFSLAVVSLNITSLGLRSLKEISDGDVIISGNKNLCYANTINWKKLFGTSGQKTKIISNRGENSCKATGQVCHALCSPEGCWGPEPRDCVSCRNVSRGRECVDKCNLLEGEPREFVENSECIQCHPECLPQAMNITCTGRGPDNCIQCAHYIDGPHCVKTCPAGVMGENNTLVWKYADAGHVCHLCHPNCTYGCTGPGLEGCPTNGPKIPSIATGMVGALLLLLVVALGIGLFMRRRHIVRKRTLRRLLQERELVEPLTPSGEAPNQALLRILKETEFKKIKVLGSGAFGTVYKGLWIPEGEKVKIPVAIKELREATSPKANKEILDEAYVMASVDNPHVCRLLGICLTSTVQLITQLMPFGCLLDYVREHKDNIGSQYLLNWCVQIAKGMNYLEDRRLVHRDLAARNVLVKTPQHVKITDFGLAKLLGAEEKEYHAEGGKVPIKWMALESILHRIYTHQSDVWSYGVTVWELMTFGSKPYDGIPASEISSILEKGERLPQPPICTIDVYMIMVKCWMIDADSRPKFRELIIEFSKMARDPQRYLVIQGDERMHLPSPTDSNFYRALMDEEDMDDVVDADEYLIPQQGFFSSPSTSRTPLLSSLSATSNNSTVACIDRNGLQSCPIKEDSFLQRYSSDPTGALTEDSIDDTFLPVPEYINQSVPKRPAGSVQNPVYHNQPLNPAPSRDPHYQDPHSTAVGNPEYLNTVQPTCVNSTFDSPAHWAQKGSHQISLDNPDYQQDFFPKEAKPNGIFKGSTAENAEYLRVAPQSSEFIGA
Experimental: The procedure was carried out according to the manufacturer’s protocol and referring to reported instructions as described in our previous investigation.

[1] = MTT, 48 h incubation, three individual experiments

Row | Structure (SMILES) | IC50 (tubulin) | IC50 (MCF-7 cell line; Homo sapiens, MCF7, 48 h) | melting point | further results
1 | O=C(/C=C/c1ccccc1)c1cc(Br)cc2cc(-c3ccccc3)oc12 [3a] | 15.6 µM | 48 ± 2.1 µM | – | –
2 | O=C(/C=C/c1ccc(F)cc1)c1cc(Br)cc2cc(-c3ccccc3)oc12 [3b] | 26.5 µM | 0.55 ± 0.24 µM | – | viability at 1 µM (MCF-7 cells; MCF7, MCF-7 cells, 1 µM, 48 h): 23.3%; %Early Apoptosis (Q4) (MCF-7 cells; MCF-7 cells, 1 µM, 48 h): 1.5%; %Late Apoptosis (Q2) (MCF-7 cells; MCF-7 cells, 1 µM, 48 h): 72%; %Necrosis (Q1) (MCF-7 cells; MCF-7 cells, 1 µM, 48 h): 3.2%; induction of apoptosis (in words) (MCF-7 cells; MCF-7 cells, 1 µM, 48 h, compared to 3i and actinomycin D): induced increased apoptosis; caspase-3 activation (in words) (Caspase-3 (Asp175)): does not induce significant caspase activation; IC50 (EGFR-TK): 0.17 ± 0.03 µM
3 | O=C(/C=C/c1ccc(Cl)cc1)c1cc(Br)cc2cc(-c3ccccc3)oc12 [3c] | 26.4 µM | > 100 µM | 242 to 245 °C | –
4 | COc1ccc(/C=C/C(=O)c2cc(Br)cc3cc(-c4ccccc4)oc23)cc1 [3d] | 34.5 µM | 22.8 ± 0.86 µM | 206 to 208 °C | –
5 | O=C(/C=C/c1ccc(OC(F)(F)F)cc1)c1cc(Br)cc2cc(-c3ccccc3)oc12 [3e] | – | 0.59 ± 0.21 µM | – | –
6 | O=C(/C=C/c1ccccc1)c1cc(Br)cc2cc(-c3ccc(F)cc3)oc12 [3f] | 23.3 µM | 35.8 ± 1.2 µM | 224 to 226 °C | –
7 | O=C(/C=C/c1ccc(F)cc1)c1cc(Br)cc2cc(-c3ccc(F)cc3)oc12 [3g] | 13.2 µM | 48.6 ± 2.1 µM | 239 to 242 °C | cytotoxicity against MCF-7 cells (in words) (MCF-7 cell line; MTT): reduced cytotoxicity
8 | O=C(/C=C/c1ccc(Cl)cc1)c1cc(Br)cc2cc(-c3ccc(F)cc3)oc12 [3h] | 1.33 µM | 54.16 ± 0.4 µM | 231 to 233 °C | cytotoxicity against MCF-7 cells (in words) (MCF-7 cell line; MTT): reduced cytotoxicity
9 | COc1ccc(/C=C/C(=O)c2cc(Br)cc3cc(-c4ccc(F)cc4)oc23)cc1 [3i, (E)-1-(5-Bromo-2-(4-fluorophenyl)benzofuran-7-yl)-3-(4-methoxyphenyl)prop-2-en-1-one] | 5.51e-05 µM | 0.000355 µM | – | viability at 1 µM (MCF-7 cells; MCF7, MCF-7 cells, 1 µM, 48 h): 32.2%; %Early Apoptosis (Q4) (MCF-7 cells; MCF-7 cells, 1 µM, 48 h): 3.1%; %Late Apoptosis (Q2) (MCF-7 cells; MCF-7 cells, 1 µM, 48 h): 61.7%; %Necrosis (Q1) (MCF-7 cells; MCF-7 cells, 1 µM, 48 h): 3.1%; IC50 (EGFR-TK): 0.09 ± 0.03 µM
10 | O=C(/C=C/c1ccc(OC(F)(F)F)cc1)c1cc(Br)cc2cc(-c3ccc(F)cc3)oc12 [3j] | 0.00885 µM | – | – | IC50 (MCF-7 cell line; [1]): 16 ± 0.62 µM
11 | O=C(/C=C/c1ccccc1)c1cc(Br)cc2cc(-c3cccc(F)c3)oc12 [3k] | 77 µM | 23 ± 0.38 µM | 243 to 245 °C | –
12 | O=C(/C=C/c1ccc(F)cc1)c1cc(Br)cc2cc(-c3cccc(F)c3)oc12 [3l] | 3.98 µM | > 100 µM | 266 to 267 °C | cytotoxicity against MCF-7 cells (in words) (MCF-7 cell line; MTT): inactive
13 | O=C(/C=C/c1ccc(Cl)cc1)c1cc(Br)cc2cc(-c3cccc(F)c3)oc12 [3m] | 10.2 µM | 14.8 ± 0.33 µM | 234 to 235 °C | –
14 | COc1ccc(/C=C/C(=O)c2cc(Br)cc3cc(-c4cccc(F)c4)oc23)cc1 [3n] | – | 39.2 ± 0.42 µM | 221 to 222 °C | inhibitory effect against tubulin polymerization (in words) (tubulin): Moderate activity
15 | O=C(/C=C/c1ccc(OC(F)(F)F)cc1)c1cc(Br)cc2cc(-c3cccc(F)c3)oc12 [3o, (E)-1-(5-Bromo-2-(3-fluorophenyl)benzofuran-7-yl)-3-(4-(trifluoromethoxy)phenyl)prop-2-en-1-one] | 0.000176 µM | 7.87 ± 0.25 µM | 186 to 187 °C | IC50 (EGFR-TK): 0.12 ± 0.04 µM
16 | O=C(/C=C/c1ccccc1)c1cc(Br)cc2cc(-c3cccc(Cl)c3)oc12 [3p] | 0.0937 µM | 12.6 ± 0.23 µM | 218 to 219 °C | inhibitory effect against tubulin polymerization (in words) (tubulin): significant inhibitory effects; IC50 (EGFR-TK): 0.17 ± 0.06 µM
17 | O=C(/C=C/c1ccc(F)cc1)c1cc(Br)cc2cc(-c3cccc(Cl)c3)oc12 [3q] | 51.3 µM | 23.8 ± 0.29 µM | 232 to 233 °C | –
18 | O=C(/C=C/c1ccc(Cl)cc1)c1cc(Br)cc2cc(-c3cccc(Cl)c3)oc12 [3r] | 34.5 µM | 66.8 ± 0.84 µM | 257 to 258 °C | –
19 | COc1ccc(/C=C/C(=O)c2cc(Br)cc3cc(-c4cccc(Cl)c4)oc23)cc1 [3s] | 0.71 µM | 2.69 ± 0.23 µM | 214 to 215 °C | inhibitory effect against tubulin polymerization (in words) (tubulin): significant inhibitory effects
20 | O=C(/C=C/c1ccc(OC(F)(F)F)cc1)c1cc(Br)cc2cc(-c3cccc(Cl)c3)oc12 [3t] | 2.83 µM | – | – | IC50 (MCF-7 cell line; [1]): 26.6 ± 0.27 µM
21 | COc1ccc(-c2cc3cc(Br)cc(C(=O)/C=C/c4ccccc4)c3o2)cc1 [3u] | – | 48.96 ± 0.3 µM | 255 to 256 °C | –
22 | COc1ccc(-c2cc3cc(Br)cc(C(=O)/C=C/c4ccc(F)cc4)c3o2)cc1 [3v] | 0.0162 µM | 28.4 ± 0.46 µM | 241 to 242 °C | IC50 (EGFR-TK): 0.15 ± 0.02 µM
23 | COc1ccc(-c2cc3cc(Br)cc(C(=O)/C=C/c4ccc(Cl)cc4)c3o2)cc1 [3w] | 48.4 µM | 30.6 ± 0.35 µM | 209 to 210 °C | –
24 | COc1ccc(/C=C/C(=O)c2cc(Br)cc3cc(-c4ccc(OC)cc4)oc23)cc1 [3x] | 67.4 µM | 69.1 ± 0.76 µM | 216 to 217 °C | –
25 | COc1ccc(-c2cc3cc(Br)cc(C(=O)/C=C/c4ccc(OC(F)(F)F)cc4)c3o2)cc1 [3y] | 78 µM | 43.17 ± 0.28 µM | 187 to 188 °C | –
26 | Cc1c2oc3c(C)ccc(C(=O)N[C@@H]4C(=O)N[C@H](C(C)C)C(=O)N5CCC[C@H]5C(=O)N(C)CC(=O)N(C)[C@@H](C(C)C)C(=O)O[C@@H]4C)c3nc-2c(C(=O)N[C@@H]2C(=O)N[C@H](C(C)C)C(=O)N3CCC[C@H]3C(=O)N(C)CC(=O)N(C)[C@@H](C(C)C)C(=O)O[C@@H]2C)c(N)c1=O [Actinomycin D, reference compound] (I: T[dV]P[Sar][NMeV] / II: T[dV]P[Sar][NMeV]; ester I:1-I:C, II:1-II:C; linker I:N-II:N via Actinocin(9to1)) | – | 37.8 ± 1.3 µM | – | viability at 1 µM (MCF-7 cells; MCF7, 48 h): 30.7%; %Early Apoptosis (Q4) (MCF-7 cells; MCF-7 cells, 1 µM, 48 h): 3.4%; %Late Apoptosis (Q2) (MCF-7 cells; MCF-7 cells, 1 µM, 48 h): 61.4%; %Necrosis (Q1) (MCF-7 cells; MCF-7 cells, 1 µM, 48 h): 4.5%; IC50 (EGFR-TK): 0.04 ± 0.03 µM
